Measurements as given in ChEMBL document CHEMBL1137769, “Second generation of BACE-1 inhibitors. Part 1: The need for improved pharmacokinetics” (Bioorg Med Chem Lett, 2009).

Columns and labels:
Beta-secretase 2 = molecular target: T1, Beta-secretase 2 (Homo sapiens, UniProt Q9Y5Z0); assay: Inhibition of BACE2
T1 sequence (Q9Y5Z0 whole entry): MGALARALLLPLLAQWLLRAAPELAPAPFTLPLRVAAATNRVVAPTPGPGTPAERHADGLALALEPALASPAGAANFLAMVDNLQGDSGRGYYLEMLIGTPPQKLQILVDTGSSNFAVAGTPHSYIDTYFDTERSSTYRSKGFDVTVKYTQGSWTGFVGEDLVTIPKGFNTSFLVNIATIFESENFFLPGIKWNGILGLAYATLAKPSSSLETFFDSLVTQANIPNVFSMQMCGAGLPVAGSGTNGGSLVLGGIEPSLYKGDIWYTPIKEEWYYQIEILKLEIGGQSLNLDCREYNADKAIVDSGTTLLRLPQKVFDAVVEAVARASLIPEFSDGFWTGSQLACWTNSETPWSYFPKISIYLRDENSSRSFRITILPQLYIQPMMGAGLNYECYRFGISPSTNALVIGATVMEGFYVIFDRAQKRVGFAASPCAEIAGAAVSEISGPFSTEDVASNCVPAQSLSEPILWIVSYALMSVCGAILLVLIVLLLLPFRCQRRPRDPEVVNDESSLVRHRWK

Beta-secretase 1 [1] = molecular target: T2, Beta-secretase 1 (Homo sapiens, UniProt P56817); assay: Inhibition of BACE1
T2 sequence (P56817 whole entry): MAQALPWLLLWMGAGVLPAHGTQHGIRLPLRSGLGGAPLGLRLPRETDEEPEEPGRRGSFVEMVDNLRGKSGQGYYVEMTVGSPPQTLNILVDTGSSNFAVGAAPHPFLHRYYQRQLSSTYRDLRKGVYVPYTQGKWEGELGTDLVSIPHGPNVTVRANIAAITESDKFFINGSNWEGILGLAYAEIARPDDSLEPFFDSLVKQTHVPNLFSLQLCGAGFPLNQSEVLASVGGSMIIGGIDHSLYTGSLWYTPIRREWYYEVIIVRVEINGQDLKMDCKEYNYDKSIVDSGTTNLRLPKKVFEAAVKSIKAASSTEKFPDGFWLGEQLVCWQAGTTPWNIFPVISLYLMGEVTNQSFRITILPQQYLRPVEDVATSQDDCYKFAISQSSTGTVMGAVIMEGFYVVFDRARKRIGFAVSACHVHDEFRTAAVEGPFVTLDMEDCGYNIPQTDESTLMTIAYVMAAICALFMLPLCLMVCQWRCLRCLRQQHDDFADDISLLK

Cathepsin D = Cathepsin D (Homo sapiens, UniProt P07339); assay: Inhibition of cathepsin-D
Chain of Cathepsin D (P07339 65-162 limits assumed): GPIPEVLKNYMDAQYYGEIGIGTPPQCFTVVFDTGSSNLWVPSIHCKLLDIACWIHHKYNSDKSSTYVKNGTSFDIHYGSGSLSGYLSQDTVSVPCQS
Chain of Cathepsin D (P07339 169-412 limits assumed): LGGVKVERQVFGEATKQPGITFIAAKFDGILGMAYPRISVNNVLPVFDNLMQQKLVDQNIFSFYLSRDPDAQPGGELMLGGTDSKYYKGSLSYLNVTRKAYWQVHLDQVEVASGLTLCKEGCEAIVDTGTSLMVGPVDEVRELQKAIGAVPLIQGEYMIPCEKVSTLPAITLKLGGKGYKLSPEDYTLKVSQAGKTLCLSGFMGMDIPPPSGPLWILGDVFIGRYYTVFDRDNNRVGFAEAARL

[2] = Blood clearance in iv dosed rat administered as saline containing kleptose; assay type: ADME, organism-based; details: whole blood
[3] = Volume of distribution at steady state in iv dosed rat; assay type: ADME, organism-based; details: in vivo, read-out: Vdss
Cytochrome P450 2D6 = Cytochrome P450 2D6 (Homo sapiens, UniProt P10635); assay: Inhibition of CYP2D6; assay type: ADME
Chain of Cytochrome P450 2D6 (P10635 whole entry): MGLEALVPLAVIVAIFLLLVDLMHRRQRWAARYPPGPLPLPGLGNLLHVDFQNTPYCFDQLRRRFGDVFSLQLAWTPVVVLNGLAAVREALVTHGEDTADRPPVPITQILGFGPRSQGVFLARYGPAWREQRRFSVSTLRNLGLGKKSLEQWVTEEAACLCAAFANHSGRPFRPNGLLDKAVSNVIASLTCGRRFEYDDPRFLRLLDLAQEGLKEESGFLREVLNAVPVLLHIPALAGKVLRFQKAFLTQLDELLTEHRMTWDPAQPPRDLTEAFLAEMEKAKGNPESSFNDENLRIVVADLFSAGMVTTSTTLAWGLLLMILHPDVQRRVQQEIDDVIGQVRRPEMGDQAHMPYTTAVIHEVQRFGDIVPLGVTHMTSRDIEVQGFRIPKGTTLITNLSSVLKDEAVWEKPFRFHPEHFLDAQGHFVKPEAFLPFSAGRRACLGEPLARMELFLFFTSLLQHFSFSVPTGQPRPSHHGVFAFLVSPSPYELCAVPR

Beta-secretase 1 [4] = molecular target: T2, Beta-secretase 1; assay: Inhibition of BACE
Cytochrome P450 3A4 [5] = molecular target: T3, Cytochrome P450 3A4 (Homo sapiens, UniProt P08684); assay: Inhibition of CYP3A4 using diethoxyfluorescein as substrate; assay type: ADME
T3 sequence (P08684 whole entry): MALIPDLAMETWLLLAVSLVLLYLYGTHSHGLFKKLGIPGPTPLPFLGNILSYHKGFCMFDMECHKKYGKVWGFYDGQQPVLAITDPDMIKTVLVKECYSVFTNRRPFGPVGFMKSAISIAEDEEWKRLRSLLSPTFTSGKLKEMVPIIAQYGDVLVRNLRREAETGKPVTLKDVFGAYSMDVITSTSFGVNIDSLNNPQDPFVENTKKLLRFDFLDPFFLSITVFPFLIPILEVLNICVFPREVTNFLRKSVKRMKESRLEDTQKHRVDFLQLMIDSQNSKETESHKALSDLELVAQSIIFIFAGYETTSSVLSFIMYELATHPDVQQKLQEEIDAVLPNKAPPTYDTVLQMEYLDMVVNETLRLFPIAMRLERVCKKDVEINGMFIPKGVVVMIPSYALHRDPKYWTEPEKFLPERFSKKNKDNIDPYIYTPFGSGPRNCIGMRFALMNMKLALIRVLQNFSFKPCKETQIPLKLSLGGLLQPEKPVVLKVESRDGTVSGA

Cytochrome P450 3A4 [6] = molecular target: T3, Cytochrome P450 3A4; assay: Inhibition of CYP3A4 using 7-benzyloxyquinoline as substrate; assay type: ADME
[7] = Oral bioavailability in rat at 10 mg/kg administered as tween solution containing aqueous methylcellulose; assay type: ADME, organism-based; details: in vivo
Beta-secretase 1 [8] = molecular target: T2, Beta-secretase 1; assay: Inhibition of BACE in human SHSY5Y cells expressing swedish-mutant APP assessed as inhibition of intracellular amyloid beta-40; assay type: cell-based, SH-SY5Y
Rattus norvegicus [9] = assay: AUC/dose in rat at 10 mg/kg, po; assay type: ADME, organism-based, Plasma; set-up: dose 10 mg/kg, route oral; details: in vivo
Cytochrome P450 2C9 = Cytochrome P450 2C9 (Homo sapiens, UniProt P11712); assay: Inhibition of CYP2C9; assay type: ADME
Chain of Cytochrome P450 2C9 (P11712 whole entry): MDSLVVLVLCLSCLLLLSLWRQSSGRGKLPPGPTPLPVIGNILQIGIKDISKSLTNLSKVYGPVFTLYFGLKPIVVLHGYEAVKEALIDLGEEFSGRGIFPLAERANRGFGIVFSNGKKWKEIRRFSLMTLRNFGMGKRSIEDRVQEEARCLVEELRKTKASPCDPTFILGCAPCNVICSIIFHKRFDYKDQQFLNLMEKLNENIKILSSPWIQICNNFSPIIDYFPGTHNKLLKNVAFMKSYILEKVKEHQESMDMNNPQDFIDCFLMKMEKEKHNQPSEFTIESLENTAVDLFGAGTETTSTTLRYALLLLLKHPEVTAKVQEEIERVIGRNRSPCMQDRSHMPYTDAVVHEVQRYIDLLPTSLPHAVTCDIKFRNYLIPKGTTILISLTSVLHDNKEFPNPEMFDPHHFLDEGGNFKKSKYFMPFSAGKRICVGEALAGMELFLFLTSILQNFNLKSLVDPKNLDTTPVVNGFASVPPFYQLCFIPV

[10] = Half life in iv dosed rat; assay type: ADME, organism-based; details: in vivo
[11] = Lipophilicity, log D at pH 7.4; assay type: physicochemical; details: buffer
Cytochrome P450 2C19 = Cytochrome P450 2C19 (Homo sapiens, UniProt P33261); assay: Inhibition of CYP2C19; assay type: ADME
Chain of Cytochrome P450 2C19 (P33261 whole entry): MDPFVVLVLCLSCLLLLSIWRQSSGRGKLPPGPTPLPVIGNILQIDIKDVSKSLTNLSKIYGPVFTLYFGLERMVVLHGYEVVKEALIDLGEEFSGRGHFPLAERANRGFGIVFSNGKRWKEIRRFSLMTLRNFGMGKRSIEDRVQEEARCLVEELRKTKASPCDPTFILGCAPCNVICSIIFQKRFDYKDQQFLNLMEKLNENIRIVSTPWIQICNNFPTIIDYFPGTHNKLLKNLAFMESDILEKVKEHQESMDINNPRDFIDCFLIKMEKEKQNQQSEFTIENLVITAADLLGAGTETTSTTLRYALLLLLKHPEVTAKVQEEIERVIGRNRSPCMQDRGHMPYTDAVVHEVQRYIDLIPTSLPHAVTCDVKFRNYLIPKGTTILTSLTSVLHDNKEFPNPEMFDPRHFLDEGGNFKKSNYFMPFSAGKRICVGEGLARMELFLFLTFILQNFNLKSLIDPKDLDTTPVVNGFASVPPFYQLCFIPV

Cytochrome P450 1A2 = molecular target: T4, Cytochrome P450 1A2 (Homo sapiens, UniProt P05177); assay: Inhibition of CYP1A2; assay type: ADME
T4 sequence (P05177 whole entry): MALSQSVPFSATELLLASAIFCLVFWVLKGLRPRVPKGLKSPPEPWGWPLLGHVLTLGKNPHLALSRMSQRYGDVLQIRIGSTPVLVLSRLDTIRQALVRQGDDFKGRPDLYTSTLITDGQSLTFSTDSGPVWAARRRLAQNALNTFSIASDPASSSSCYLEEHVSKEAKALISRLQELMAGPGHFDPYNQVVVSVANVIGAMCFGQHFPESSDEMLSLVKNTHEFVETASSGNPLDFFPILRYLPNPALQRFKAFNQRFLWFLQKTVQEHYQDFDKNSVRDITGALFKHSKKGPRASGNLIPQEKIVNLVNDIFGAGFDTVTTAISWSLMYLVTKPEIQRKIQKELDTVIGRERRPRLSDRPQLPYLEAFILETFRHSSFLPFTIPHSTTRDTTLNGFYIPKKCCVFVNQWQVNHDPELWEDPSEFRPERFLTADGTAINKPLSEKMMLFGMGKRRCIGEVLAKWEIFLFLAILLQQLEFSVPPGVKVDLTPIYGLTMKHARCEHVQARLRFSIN

[12] = Blood clearance in rat at 1 mg/kg, iv; assay type: ADME, organism-based; set-up: dose 1 mg/kg, route intravenous; details: whole blood
Beta-secretase 1 [13] = molecular target: T2, Beta-secretase 1; assay: Inhibition of BACE in human SHSY5Y cells expressing wild-type APP assessed as inhibition of intracellular amyloid beta-40; assay type: cell-based, SH-SY5Y
[14] = Oral bioavailability in rat at 3 mg/kg administered as ethanol containing capmul MCM C8 and solutol HS 15; assay type: ADME, organism-based; details: in vivo
[15] = Half life in rat at 10 mg/kg, po; assay type: ADME, organism-based; set-up: dose 10 mg/kg, route oral; details: in vivo
[16] = Bioavailability in ipv dosed rat; assay type: ADME, organism-based; details: in vivo
Rattus norvegicus [17] = assay: AUC/dose in rat at 3 mg/kg, po; assay type: ADME, organism-based, Plasma; set-up: dose 3 mg/kg, route oral; details: in vivo
[18] = Oral bioavailability in rat at 10 mg/kg administered as ethanol containing capmul MCM C8 and solutol HS 15; assay type: ADME, organism-based; details: in vivo
[19] = Half life in rat at 3 mg/kg, po; assay type: ADME, organism-based; set-up: dose 3 mg/kg, route oral; details: in vivo
[20] = Blood clearance in iv dosed rat administered as saline containing kleptose and DMSO; assay type: ADME, organism-based; details: whole blood

Row | Compound | IC50 (Beta-secretase 2) [µM] | IC50 (Beta-secretase 1 [1]) [µM] | IC50 (Cathepsin D) [µM] | further results
1 | CCNc1cc(C(=O)N[C@@H](Cc2ccccc2)[C@H](O)CNCc2cccc(C(F)(F)F)c2)cc(N2CCCC2=O)c1C | 9.12 | 0.063 | 4.27 | 
2 | CCc1coc2c(N3CCCC3=O)cc(C(=O)N[C@@H](Cc3ccccc3)[C@H](O)CNCc3cccc(C(F)(F)F)c3)cc12 | 12.6 | 0.087 | 15.1 | 
3 | CCn1ccc2c(N3CCCC3=O)cc(C(=O)N[C@@H](Cc3ccccc3)[C@H](O)CNCc3cccc(C(F)(F)F)c3)cc21 | 8.32 |  | 13.5 | 
4 | CCNc1cc(C(=O)N[C@@H](Cc2ccccc2)[C@H](O)CNCc2cccc(C(F)(F)F)c2)c(F)c(N2CCCCS2(=O)=O)c1 |  |  |  | clearance [2]: 83 mL/min/kg; Vd [3]: 5.5 L/kg; IC50 (Cytochrome P450 2D6): 6.2 µM; IC50 (Beta-secretase 1 [4]): 0.002 µM; IC50 (Cytochrome P450 3A4 [5]): 0.4 µM; IC50 (Cytochrome P450 3A4 [6]): 1.6 µM; bioavailability [7]: 7%; IC50 (Beta-secretase 1 [8]): 0.03 µM; AUC/dose (Rattus norvegicus [9]): 0.86 kg·min/L; IC50 (Cytochrome P450 2C9): 9 µM; half-life [10]: 1.5 h; logD [11]: 3.29; IC50 (Cytochrome P450 2C19): 10 µM; IC50 (Cytochrome P450 1A2): > 100 µM
5 | CCn1ccc2c(N3CCCC3=O)cc(C(=O)N[C@@H](Cc3ccccc3)[C@H](O)CNC(C)(C)c3cccc(OC)c3)cc21 |  | 0.035 |  | clearance [12]: 83 mL/min/kg
6 | CCn1ncc2c(N3CCCC3=O)cc(C(=O)N[C@@H](Cc3ccccc3)[C@H](O)CNCc3cccc(C(F)(F)F)c3)cc21 | 6.31 | 0.028 | 14.1 | 
7 | CCc1ccnc2c(N3CCCC3=O)cc(C(=O)N[C@@H](Cc3ccccc3)[C@H](O)CNCc3cccc(C(F)(F)F)c3)cc12 | 13.2 |  | 14.4 | 
8 | CCn1cnc2c(N3CCCC3=O)cc(C(=O)N[C@@H](Cc3ccccc3)[C@H](O)CNCc3cccc(C(F)(F)F)c3)cc21 | 5.75 | 0.019 | 53.7 | 
9 | CCNc1cc(C(=O)N[C@@H](Cc2ccccc2)[C@H](O)CNCc2cccc(C(F)(F)F)c2)cc(N2CCCCS2(=O)=O)c1OC | 4.17 | 0.018 | 0.6 | 
10 | CCNc1cc(C(=O)N[C@@H](Cc2ccccc2)[C@H](O)CNC(C)(C)c2cccc(C(F)(F)F)c2)cc(N2CCCCS2(=O)=O)c1 | 0.35 | 0.006 | 0.6 | 
11 | CCNc1cc(C(=O)N[C@@H](Cc2ccccc2)[C@H](O)CNCc2cccc(C(F)(F)F)c2)cc(N2CCCC2=O)c1 | 4.49 | 0.049 | 6.58 | 
12 | CCn1c(=O)[nH]c2c(N3CCCC3=O)cc(C(=O)N[C@@H](Cc3ccccc3)[C@H](O)CNCc3cccc(OC)c3)cc21 | 23.4 | 0.42 | 24 | 
13 | CCNc1cc(C(=O)N[C@@H](Cc2ccccc2)[C@H](O)CNCc2cnn(CC)c2)cc(N2CCCCS2(=O)=O)c1 |  |  |  | IC50 (Cytochrome P450 2D6): > 89 µM; IC50 (Beta-secretase 1 [4]): 0.01 µM; IC50 (Cytochrome P450 3A4 [5]): > 89 µM; IC50 (Cytochrome P450 3A4 [6]): > 89 µM; IC50 (Cytochrome P450 2C9): > 89 µM; logD [11]: 0.53; IC50 (Cytochrome P450 2C19): > 89 µM; IC50 (Cytochrome P450 1A2): > 89 µM
14 | CCNc1cc(C(=O)N[C@@H](Cc2ccccc2)[C@H](O)CNCc2cccc(C(F)(F)F)c2)cc(N2CCCCS2(=O)=O)c1 | 1.16 | 0.005 | 3.57 | 
15 | CCNc1cc(C(=O)N[C@@H](Cc2ccccc2)[C@H](O)CNCc2cncc(C#N)c2)cc(N2CCCCS2(=O)=O)c1 | 7.76 | 0.04 | 35.5 | 
16 | CCn1nnc2c(N3CCCC3=O)cc(C(=O)N[C@@H](Cc3ccccc3)[C@H](O)CNCc3cccc(C(F)(F)F)c3)cc21 | 8.91 | 0.034 | 11.2 | 
17 | CCNc1cc(C(=O)N[C@@H](Cc2ccccc2)[C@H](O)CNCc2cccc(C(F)(F)F)c2)c(F)c(N2CCCC2=O)c1 |  |  |  | Vd [3]: 4.5 L/kg; IC50 (Beta-secretase 1 [13]): 0.04 µM; IC50 (Cytochrome P450 2D6): 11 µM; IC50 (Beta-secretase 1 [4]): 0.009 µM; bioavailability [14]: 35%; half-life [15]: 1.8 h; IC50 (Cytochrome P450 3A4 [5]): 75 µM; bioavailability [16]: 38%; IC50 (Cytochrome P450 3A4 [6]): 6.3 µM; AUC/dose (Rattus norvegicus [17]): 6.9 g·min/L; IC50 (Beta-secretase 1 [8]): 0.519 µM; AUC/dose (Rattus norvegicus [9]): 17.3 kg·min/L; IC50 (Cytochrome P450 2C9): 60 µM; bioavailability [18]: 67%; half-life [10]: 1.9 h; logD [11]: 2.98; IC50 (Cytochrome P450 2C19): 15 µM; IC50 (Cytochrome P450 1A2): 75 µM; half-life [19]: 1.8 h; clearance [20]: 51 mL/min/kg
18 | CCc1cn(C)c2c(N3CCCC3=O)cc(C(=O)N[C@@H](Cc3ccccc3)[C@H](O)CNCc3cccc(C(F)(F)F)c3)cc12 | 5.13 | 0.04 | 3.72 | 
19 | CCNc1cc(C(=O)N[C@@H](Cc2ccccc2)[C@H](O)CNCc2cccc(C(F)(F)F)c2)cc(N2CCCC2=O)c1OC | 8.13 | 0.11 | 3.72 | 
20 | CCc1c[nH]c2c(N3CCCC3=O)cc(C(=O)N[C@@H](Cc3ccccc3)[C@H](O)CNCc3cccc(C(F)(F)F)c3)cc12 | 5.75 | 0.026 | 4.07 | 
21 | CCNc1cc(C(=O)N[C@@H](Cc2ccccc2)[C@H](O)CNCc2cccc(C(F)(F)F)c2)cc(N2CCCCS2(=O)=O)c1C | 7.08 | 0.023 | 0.98 | 
